In patent publication US7928233B2, “Spiroindolinone pyridine derivatives” (Hoffmann-La Roche Inc., priority 2009, dated 2011):
pIC50: −log10 of the molar value.

Target: interaction between p53 and MDM2 proteins (recombinant GST-tagged MDM2 / p53 peptide) (Homo sapiens, UniProt Q00987)
Assay: HTRF assay of inhibition of p53-MDM2 interaction
Type: binding
Conditions: 0.02% BSA; HTRF GST-MDM2 / biotinylated p53 peptide
Method: The ability of the compounds to inhibit the interaction between p53 and MDM2 proteins was measured by an HTRF (homogeneous time-resolved fluorescence) assay in which recombinant GST-tagged MDM2 binds to a peptide that resembles the MDM2-interacting region of p53 (Lane et al.). Binding of GST-MDM2 protein and p53-peptide (biotinylated on its N-terminal end) is registered by the FRET (fluorescence resonance energy transfer) between Europium (Eu)-labeled anti-GST antibody and streptavidin-conjugated Allophycocyanin (APC).
Test is performed in black flat-bottom 384-well plates (Costar) in a total volume of 40 uL containing: 90 nM biotinylate peptide, 160 ng/ml GST-MDM2, 20 nM streptavidin-APC (PerkinElmerWallac), 2 nM Eu-labeled anti-GST-antibody (PerkinElmerWallac), 0.2% bovine serum albumin (BSA), 1 mM dithiothreitol (DTT) and 20 mM Tris-borate saline (TBS) buffer as follows: Add 10 uL of GST-MDM2 (640 ng/ml working solution) in reaction buffer to each well. Add 10 uL diluted compounds (1:5 dilution in reaction buffer) to each well, mix by shaking Add 20 uL biotinylated p53 peptide (180 nM working solution) in reaction buffer to each well and mix on shaker. Incubate at 37° C. for 1 h. Add 20 uL streptavidin-APC and Eu-anti-GST antibody mixture (6 nM Eu-anti-GST and 60 nM streptavidin-APC working solution) in TBS buffer with 0.2% BSA, shake at room temperature for 30 minutes and read using a TRF-capable plate reader at 665 and 615 nm (Victor 5, Perkin ElmerWallac). If not specified, the reagents were purchased from Sigma Chemical Co.

Chain of interaction between p53 and MDM2 proteins (recombinant GST-tagged MDM2 / p53 peptide) (Q00987 whole entry): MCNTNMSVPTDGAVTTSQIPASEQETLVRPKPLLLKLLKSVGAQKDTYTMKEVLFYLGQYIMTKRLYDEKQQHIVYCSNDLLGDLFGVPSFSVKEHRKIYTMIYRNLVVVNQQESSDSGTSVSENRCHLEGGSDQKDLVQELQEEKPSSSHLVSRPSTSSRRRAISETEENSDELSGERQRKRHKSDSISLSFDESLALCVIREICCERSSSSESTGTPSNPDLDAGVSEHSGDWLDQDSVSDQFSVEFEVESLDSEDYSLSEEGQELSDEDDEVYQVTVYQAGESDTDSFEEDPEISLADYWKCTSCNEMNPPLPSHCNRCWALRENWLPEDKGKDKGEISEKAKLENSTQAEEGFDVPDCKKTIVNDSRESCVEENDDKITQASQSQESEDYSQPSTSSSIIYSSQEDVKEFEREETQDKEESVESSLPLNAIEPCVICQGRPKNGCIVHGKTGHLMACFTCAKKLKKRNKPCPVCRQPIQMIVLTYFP

pIC50 | SMILES
6.84 | Cc1ccc(F)cc1[C@@H]1NC(=O)C[C@H](c2cc(Cl)cnc2OC(C)(C)C(=O)O)[C@@]12C(=O)Nc1cc(Cl)ccc12 (racemic) [Example 8, racemic (2′S, 3S, 4′R)-6-chloro-4′-[5-chloro-2-(1-hydroxycarbonyl-1-methyl-ethoxy)-pyridin-3-yl]-2′-(5-fluoro-2-methyl-phenyl) spiro[3H-indole-3,3′-piperidine]-2,6′(1H)-dione]
6.97 | Cc1ccc(F)cc1[C@@H]1NC(=O)C[C@H](c2cc(Cl)cnc2OC(C)(C)C(=O)O)[C@@]12C(=O)Nc1cc(Cl)ccc12 [Example 9, chiral (2′S, 3S, 4′R)-6-chloro-4′-[5-chloro-2-(1-hydroxycarbonyl-1-methyl-ethoxy)-pyridin-3-yl]-2′-(5-fluoro-2-methyl-phenyl) spiro[3H-indole-3,3′-piperidine]-2,6′(1H)-dione]
6.87 | Cc1ccc(F)cc1[C@@H]1NC(=O)C[C@H](c2cc(Cl)cnc2OC(C)(C)C(=O)NS(C)(=O)=O)[C@@]12C(=O)Nc1cc(Cl)ccc12 [Example 11, chiral (2′S, 3S, 4′R)-4′-[5-chloro-2-(2-methanesulfonylamino-1,1-methyl-2-oxo-ethoxy)-pyridin-3-yl]-6-chloro-2′-(5-fluoro-2-methyl-phenyl) spiro[3H-indole-3,3′-piperidine]-2,6′(1H)-dione]
7.25 | Cc1ccc(Cl)cc1[C@@H]1NC(=O)C[C@H](c2cc(Cl)cnc2OC(C)(C)C(=O)O)[C@@]12C(=O)Nc1cc(Cl)ccc12 [Example 15, chiral (2′S, 3S, 4′R)-6-chloro-4′-[5-chloro-2-(1-hydroxycarbonyl-1-methyl-ethoxy)-pyridin-3-yl]-2′-(5-chloro-2-methyl-phenyl) spiro[3H-indole-3,3′-piperidine]-2,6′(1H)-dione]
